Assay results: ChEMBL document CHEMBL3885881, “DrugMatrix”

Species on record: Rattus norvegicus
Assay: DrugMatrix - Regimen: Daily Repeat
Format: toxicity, organism-based, Sprague-Dawley
Set-up: regimen Daily Repeat, gender Male, age 6-8 weeks
Settings: in vivo, iv, […], vehicle 100 % SALINE; for ALANINE AMINOTRANSFERASE / ALBUMIN / ALKALINE PHOSPHATASE / ASPARTATE AMINOTRANSFERASE / BLOOD UREA NITROGEN / CARBON DIOXIDE / CHLORIDE / CHOLESTEROL / CREATINE PHOSPHOKINASE / CREATININE / GLUCOSE / LACTATE DEHYDROGENASE / LIPASE / PHOSPHORUS / POTASSIUM / SODIUM / TOTAL BILIRUBIN / TOTAL PROTEIN / URIC ACID: tissue Plasma; for ABSOLUTE BASOPHIL / ABSOLUTE EOSINOPHIL / ABSOLUTE LYMPHOCYTE / ABSOLUTE MONOCYTE / ABSOLUTE SEGMENTED NEUTROPHIL / BASOPHIL / EOSINOPHIL / ERYTHROCYTE COUNT / HEMATOCRIT / HEMOGLOBIN / LEUKOCYTE COUNT / LYMPHOCYTE / MEAN CORPUSCULAR HEMOGLOBIN / MEAN CORPUSCULAR HEMOGLOBIN CONCENTRATION / MEAN CORPUSCULAR VOLUME / MONOCYTE / NEUTROPHIL / NUCLEATED RED BLOOD CELLS / PLATELET COUNT: tissue Blood
[1] = 72 h, dose 0.0033 mg/Kg, dose level Low, time 3 day
[2] = 72 h, dose 0.033 mg/Kg, dose level High, time 3 day
[3] = 120 h, dose 0.0033 mg/Kg, dose level Low, time 5 day
[4] = 120 h, dose 0.033 mg/Kg, dose level High, time 5 day

## COc1cc2c3cc1Oc1cc(ccc1O)C[C@@H]1c4c(cc(OC)c(O)c4Oc4ccc(cc4)C[C@@H]3N(C)CC2)CC[N+]1(C)C.[Cl-]
[1]
  ALANINE AMINOTRANSFERASE: 58 u/L
  ALBUMIN: 4.23 G/DL
  ALKALINE PHOSPHATASE: 467.33 u/L
  ASPARTATE AMINOTRANSFERASE: 94 u/L
  BLOOD UREA NITROGEN: 17 mg/dL
  CARBON DIOXIDE: 33 mmol/L
  CHLORIDE: 101 MEQ/L
  CHOLESTEROL: 69.33 mg/dL
  CREATINE PHOSPHOKINASE: 839.67 u/L
  CREATININE: 0.22 mg/dL
  GLUCOSE: 165 mg/dL
  LACTATE DEHYDROGENASE: 138 u/L
  LIPASE: 8.33 u/L
  PHOSPHORUS: 10.83 mg/dL
  POTASSIUM: 5.81 MEQ/L
  SODIUM: 143.17 MEQ/L
  TOTAL BILIRUBIN: 0.2 mg/dL
  TOTAL PROTEIN: 5.87 G/DL
  URIC ACID: 0.9 mg/dL
[2]
  ALANINE AMINOTRANSFERASE: 56 u/L
  ALBUMIN: 3.97 G/DL
  ALKALINE PHOSPHATASE: 312.33 u/L
  ASPARTATE AMINOTRANSFERASE: 91.67 u/L
  BLOOD UREA NITROGEN: 16.33 mg/dL
  CARBON DIOXIDE: 28 mmol/L
  CHLORIDE: 101.33 MEQ/L
  CHOLESTEROL: 75.33 mg/dL
  CREATINE PHOSPHOKINASE: 431.33 u/L
  CREATININE: 0.2 mg/dL
  GLUCOSE: 169 mg/dL
  LACTATE DEHYDROGENASE: 240.33 u/L
  LIPASE: 12.67 u/L
  PHOSPHORUS: 11.4 mg/dL
  POTASSIUM: 5.83 MEQ/L
  SODIUM: 141.23 MEQ/L
  TOTAL BILIRUBIN: 0.2 mg/dL
  TOTAL PROTEIN: 5.67 G/DL
  URIC ACID: 1.5 mg/dL
[3]
  ABSOLUTE BASOPHIL: 0 CELLS/uL
  ABSOLUTE EOSINOPHIL: 0 CELLS/uL
  ABSOLUTE LYMPHOCYTE: 11354.67 CELLS/uL
  ABSOLUTE MONOCYTE: 87 CELLS/uL
  ABSOLUTE SEGMENTED NEUTROPHIL: 958.33 CELLS/uL
  BASOPHIL: 0%
  EOSINOPHIL: 0%
  ERYTHROCYTE COUNT: 5.2 x10E6/uL
  HEMATOCRIT: 33.13%
  HEMOGLOBIN: 13.43 G/DL
  LEUKOCYTE COUNT: 12.4 x10E3/uL
  LYMPHOCYTE: 91.67%
  MEAN CORPUSCULAR HEMOGLOBIN: 25.8 pg
  MEAN CORPUSCULAR HEMOGLOBIN CONCENTRATION: 40.53 G/DL
  MEAN CORPUSCULAR VOLUME: 63.7 fL
  MONOCYTE: 0.67%
  NEUTROPHIL: 7.67%
  NUCLEATED RED BLOOD CELLS: 0 /100WBC
  PLATELET COUNT: 1167.67 x10E3/uL
  ALANINE AMINOTRANSFERASE: 55.67 u/L
  ALBUMIN: 4.07 G/DL
  ALKALINE PHOSPHATASE: 352.67 u/L
  ASPARTATE AMINOTRANSFERASE: 91.67 u/L
  BLOOD UREA NITROGEN: 20.67 mg/dL
  CARBON DIOXIDE: 28 mmol/L
  CHLORIDE: 102.67 MEQ/L
  CHOLESTEROL: 72.67 mg/dL
  CREATINE PHOSPHOKINASE: 402.33 u/L
  CREATININE: 0.22 mg/dL
  GLUCOSE: 169 mg/dL
  LACTATE DEHYDROGENASE: 354.67 u/L
  LIPASE: 10 u/L
  PHOSPHORUS: 11.7 mg/dL
  POTASSIUM: 6.36 MEQ/L
  SODIUM: 144.1 MEQ/L
  TOTAL BILIRUBIN: 0.17 mg/dL
  TOTAL PROTEIN: 5.8 G/DL
  URIC ACID: 1.53 mg/dL
[4]
  ABSOLUTE BASOPHIL: 0 CELLS/uL
  ABSOLUTE EOSINOPHIL: 146 CELLS/uL
  ABSOLUTE LYMPHOCYTE: 11010.33 CELLS/uL
  ABSOLUTE MONOCYTE: 173 CELLS/uL
  ABSOLUTE SEGMENTED NEUTROPHIL: 1104 CELLS/uL
  BASOPHIL: 0%
  EOSINOPHIL: 1%
  ERYTHROCYTE COUNT: 5.51 x10E6/uL
  HEMATOCRIT: 34.03%
  HEMOGLOBIN: 13.57 G/DL
  LEUKOCYTE COUNT: 12.43 x10E3/uL
  LYMPHOCYTE: 88.67%
  MEAN CORPUSCULAR HEMOGLOBIN: 24.63 pg
  MEAN CORPUSCULAR HEMOGLOBIN CONCENTRATION: 39.87 G/DL
  MEAN CORPUSCULAR VOLUME: 61.77 fL
  MONOCYTE: 1.33%
  NEUTROPHIL: 9%
  NUCLEATED RED BLOOD CELLS: 0 /100WBC
  PLATELET COUNT: 1282.67 x10E3/uL
  ALANINE AMINOTRANSFERASE: 66.33 u/L
  ALBUMIN: 4.17 G/DL
  ALKALINE PHOSPHATASE: 366.33 u/L
  ASPARTATE AMINOTRANSFERASE: 97.67 u/L
  BLOOD UREA NITROGEN: 17.33 mg/dL
  CARBON DIOXIDE: 29.33 mmol/L
  CHLORIDE: 101.33 MEQ/L
  CHOLESTEROL: 68.67 mg/dL
  CREATINE PHOSPHOKINASE: 303.67 u/L
  CREATININE: 0.15 mg/dL
  GLUCOSE: 156.33 mg/dL
  LACTATE DEHYDROGENASE: 446 u/L
  LIPASE: 10.67 u/L
  PHOSPHORUS: 11.53 mg/dL
  POTASSIUM: 5.71 MEQ/L
  SODIUM: 142.9 MEQ/L
  TOTAL BILIRUBIN: 0.2 mg/dL
  TOTAL PROTEIN: 5.73 G/DL
  URIC ACID: 1.33 mg/dL
